The record followed here is patent publication US9339508B2, “Use of 3-methoxy-pregnenolone for the preparation of a drug for treating a traumatic brain injury” (MAPREG, priority 2003, dated 2016).

Test [1] addresses T1, human progesterone receptor (PR) (Homo sapiens, UniProt P06401).
T1 construct: expressed in transfected cells; host or cells: HEK293T cells
T1 sequence (P06401 1-933): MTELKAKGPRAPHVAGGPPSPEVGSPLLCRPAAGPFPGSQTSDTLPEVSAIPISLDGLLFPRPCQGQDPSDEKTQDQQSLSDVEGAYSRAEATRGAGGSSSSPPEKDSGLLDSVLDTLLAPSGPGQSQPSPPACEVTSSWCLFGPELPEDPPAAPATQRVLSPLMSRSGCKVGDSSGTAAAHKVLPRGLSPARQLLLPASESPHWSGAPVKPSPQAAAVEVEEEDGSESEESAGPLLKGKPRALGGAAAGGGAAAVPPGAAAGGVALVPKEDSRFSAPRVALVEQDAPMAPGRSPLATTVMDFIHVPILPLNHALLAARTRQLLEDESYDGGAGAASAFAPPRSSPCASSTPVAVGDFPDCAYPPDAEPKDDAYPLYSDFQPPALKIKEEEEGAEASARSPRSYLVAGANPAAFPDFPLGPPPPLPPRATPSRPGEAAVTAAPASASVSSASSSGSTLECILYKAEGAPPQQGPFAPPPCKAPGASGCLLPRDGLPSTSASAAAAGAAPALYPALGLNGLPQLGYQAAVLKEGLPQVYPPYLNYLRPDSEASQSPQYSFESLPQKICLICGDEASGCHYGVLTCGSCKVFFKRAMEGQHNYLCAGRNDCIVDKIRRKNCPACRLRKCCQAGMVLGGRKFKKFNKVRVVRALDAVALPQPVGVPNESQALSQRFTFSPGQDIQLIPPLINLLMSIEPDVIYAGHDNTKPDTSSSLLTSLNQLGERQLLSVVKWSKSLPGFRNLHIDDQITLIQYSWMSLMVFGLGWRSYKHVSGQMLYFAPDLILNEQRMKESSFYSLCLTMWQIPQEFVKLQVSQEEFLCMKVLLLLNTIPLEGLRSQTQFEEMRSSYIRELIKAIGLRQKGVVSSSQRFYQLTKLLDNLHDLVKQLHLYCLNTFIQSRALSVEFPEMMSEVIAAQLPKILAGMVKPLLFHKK
Kind of test: Test of progesterone receptor agonist activity (luciferase transactivation, HEK293T). The format is cell-based. Particulars: 24 hours, increasing amounts. On the procedure:
The main experimental setting used is the following: HEK293T cells were transiently transfected, using calcium phosphate precipitation technology, with expression receptors pSG5hPR (which permits expression of human progesterone receptor (PR)), pFC31-luc (contains the luciferase gene under the control of the MTV promoter, which is in turn activated by binding of a progestin to progesterone receptor) and pcbetagal (which permits expression of betagalactosidase), and cultured during 24 hours with increasing amounts of various compositions: • 1. […] Test of progesterone receptor […] activity: transfected cells were cultured with progesterone (1 nM) and increasing amounts of RU486 (a well-known progesterone receptor antagonist) or 3-methoxy-pregnenolone. • With this setting, a compound with progesterone receptor antagonist activity competes with progesterone for the occupation of progesterone receptor and results in a progressive loss of transactivation activity when the amount of this compound is increased compared to progesterone. Results

For test [2], the system named is Synaptophysin. The test can be described thus: Western blot of synaptophysin in cortex and hippocampus after CCI. Format: in vivo, rat. Particulars: day 35, 20 mg/kg, first injection 2 h post-trauma, injured hippocampus. Here is the method:
CCI was performed with an electromagnetic impact device as described (MyNeurolab, St. Louis, Mo.; Brody et al, 2007). Anesthesized rats were subjected to a single right lateral CCI, with the following parameters impact centered 4.0 mm anterior to lambda and 4.5 mm […] of midline, within the craniotomy of the animal. The impact was set at a velocity of 4 m/s with a sustained depression of 200 ms, using a 5.0 mm tip.
Samples were analyzed by Western-blot at day 35 post-trauma (D35) to evaluate the effects of MAP4343 on: MAP2 (the target of MAP4343 and a modulator of microtubule function), the post-synaptic markers PSD95 and spinophilin, the pre-synaptic marker synaptophysin, and the axonal growth/integrity marker […].
Western blot was performed on cortex and hippocampus of TBI-injured animals receiving the first injection of MAP4343 (at 10 mg/kg or 20 mg/kg) or vehicle (sesame oil) 2 h after injury.
The expression level of various neuronal brain markers of plasticity was measured at day 35 post-trauma by western-blots in the cortex and hippocampus of left uninjured and right injured cerebral hemispheres of CCI traumatized animals receiving either vehicle (sesame oil, CCI-D0) or 3-methoxy-PREG (MAP4343) at 10 mg/kg (CCI-D1) or 20 mg/kg (CCI-D2), with first MAP4343 injection 2 h post-trauma.
A general note: Immunoblotting shows a protein as a band on a membrane.

In test [3] the target is T2, microtubule-associated MAP2 (Rattus norvegicus, UniProt P15146).
T2 construct: endogenous in cells; host or cells: PC12 cells
Kind of test: Immunolabeling of microtubule-associated MAP2 in PC12 cells. To be noted: 20 μM, NGF 10 ng/ml. Format: cell-based. The source says: They were fixed and exposed to anti-MAP2 antibodies that reveal microtubule-associated MAP2 esclusively.
To rest the effect of selected molecules on neuritic growth, we first used the PC12 line, which has long been employed in neurobiological research. In the presence of NOF (nerve growth factor), the cells of this line, which arise from a rat pheochromocytoma, form neuritic extensions containing MAP-associated microtubules. The growth of these elongations is stimulated by the addition of PREG. […] The screening of other natural or synthetic steroids made it possible to select several molecules presenting greater effects than that of PRIG (FIG. 2). In particular, the addition of molecule 43B, which can be synthesized easily from PRIG, caused a spectacular increase (reaching as high as 500%) in the length of neurites formed in the presence of NOF (FIG. 3). This neurite growth accompanies the stimulation by 43-3 of the association of MAP2 to the microtubules (FIG. 4).

The test system of test [4] is CHI traumatized rats. Kind of test: MRI of ventricular dilatation after Closed Head Injury (CHI). Format: in vivo, rat. To be noted: day 28 post-trauma, 20 mg/kg starting 24 hours post-trauma, compared to the vehicle. The source says:
The model “Closed Head Injury” (CHI), also commonly known as “weight-drop”, “impact-acceleration” or Marmarou model, allows the induction of TBI on a closed skull and generates diffuse axonal injuries (Holtzer et al 2001). After anesthesia induction, the scalp was incised, a piece of metal (diameter 10 mm, height 3 mm)—designed to protect against skull fracture—was glued to the skull, between the lambda and bregma. The animal was then placed on a foam bed and a cylindrical metallic 230-g weight was dropped from 2 m through a metal tubing onto the disk. At the very moment of the impact, the head of the animal plunged briefly in the foam bed, which leads to an acceleration/deceleration of the brain inside the skull.
To determine lateral ventricle preservation, as well as lesion size (in the CCI model), T2-weighted MRI was performed 28 days after injury (D28). Acquisition was performed on a 7T Bruker AVANCE BIOSPEC—horizontal magnet, with rapid acquisition and relaxation enhancement (RARE).
MRI imaging of rats was performed at day 28 post-trauma. Based on MRI imaging, ventricular dilatation induced by CHI trauma was analyzed in CHI traumatized rats injected from 24 hours post-trauma with sesame oil (CHI-D0), or 3-methoxy-PREG (MAP4343) at 10 mg/kg (CHI-D1) or 20 mg/kg (CHI-D2).

T2 sequence (P15146 whole entry): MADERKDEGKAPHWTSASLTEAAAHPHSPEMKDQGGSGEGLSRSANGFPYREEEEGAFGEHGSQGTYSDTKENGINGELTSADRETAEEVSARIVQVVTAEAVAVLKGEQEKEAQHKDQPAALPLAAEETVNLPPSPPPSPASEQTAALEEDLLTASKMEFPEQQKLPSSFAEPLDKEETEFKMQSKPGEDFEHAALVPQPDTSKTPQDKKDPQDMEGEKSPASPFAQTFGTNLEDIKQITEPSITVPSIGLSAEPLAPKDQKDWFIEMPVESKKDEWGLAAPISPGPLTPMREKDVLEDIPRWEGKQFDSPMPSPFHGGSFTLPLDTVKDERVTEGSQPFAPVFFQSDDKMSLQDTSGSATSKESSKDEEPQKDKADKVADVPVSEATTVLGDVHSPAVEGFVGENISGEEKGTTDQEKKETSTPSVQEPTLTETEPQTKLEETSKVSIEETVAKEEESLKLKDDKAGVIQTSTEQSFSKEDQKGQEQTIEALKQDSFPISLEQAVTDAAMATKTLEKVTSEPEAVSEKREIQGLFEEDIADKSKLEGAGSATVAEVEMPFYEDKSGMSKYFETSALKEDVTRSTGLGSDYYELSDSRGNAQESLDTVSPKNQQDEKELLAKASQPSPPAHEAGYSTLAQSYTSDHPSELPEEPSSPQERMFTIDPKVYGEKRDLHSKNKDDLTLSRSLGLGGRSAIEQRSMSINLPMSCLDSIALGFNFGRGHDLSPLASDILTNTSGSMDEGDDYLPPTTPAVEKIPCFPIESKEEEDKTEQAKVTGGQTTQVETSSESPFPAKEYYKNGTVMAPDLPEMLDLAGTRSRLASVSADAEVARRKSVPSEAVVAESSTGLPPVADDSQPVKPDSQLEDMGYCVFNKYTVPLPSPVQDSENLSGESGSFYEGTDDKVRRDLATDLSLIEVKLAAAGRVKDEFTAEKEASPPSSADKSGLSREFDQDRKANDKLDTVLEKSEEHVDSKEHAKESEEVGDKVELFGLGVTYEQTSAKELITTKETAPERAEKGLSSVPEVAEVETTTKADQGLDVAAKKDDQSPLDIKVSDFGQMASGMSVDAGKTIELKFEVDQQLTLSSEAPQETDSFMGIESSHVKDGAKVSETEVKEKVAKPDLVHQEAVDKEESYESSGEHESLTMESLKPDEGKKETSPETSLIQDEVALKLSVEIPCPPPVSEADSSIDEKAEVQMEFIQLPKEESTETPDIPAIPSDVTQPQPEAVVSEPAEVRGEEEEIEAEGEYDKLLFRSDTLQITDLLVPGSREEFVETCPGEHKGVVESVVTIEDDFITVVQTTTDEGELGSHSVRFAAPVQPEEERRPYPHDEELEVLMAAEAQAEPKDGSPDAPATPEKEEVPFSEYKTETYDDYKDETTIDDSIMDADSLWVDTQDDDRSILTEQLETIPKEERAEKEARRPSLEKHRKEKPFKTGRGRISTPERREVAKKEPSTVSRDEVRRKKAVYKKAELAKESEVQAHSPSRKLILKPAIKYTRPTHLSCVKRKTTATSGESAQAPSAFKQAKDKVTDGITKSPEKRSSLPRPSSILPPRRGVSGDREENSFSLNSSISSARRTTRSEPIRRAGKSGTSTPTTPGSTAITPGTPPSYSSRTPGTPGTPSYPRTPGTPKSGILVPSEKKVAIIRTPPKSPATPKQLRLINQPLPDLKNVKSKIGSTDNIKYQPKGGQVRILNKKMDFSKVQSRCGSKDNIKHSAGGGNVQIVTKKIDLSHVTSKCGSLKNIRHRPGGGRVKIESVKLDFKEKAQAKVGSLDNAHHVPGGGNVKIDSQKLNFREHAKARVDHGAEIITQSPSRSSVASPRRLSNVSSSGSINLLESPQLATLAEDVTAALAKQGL

Consider `CO[C@H]1CC[C@@]2(C)C(=CC[C@H]3[C@@H]4CC[C@H](C(C)=O)[C@@]4(C)CC[C@@H]32)C1` [3-methoxy-PREG, 3β-methoxy-pregna-5-ene-20-one], for which the “progesterone receptor agonist activity (transactivation)” value in test [1] was “does not have progesterone receptor agonist activity”. Moreover, in test [2], the Synaptophysin expression result was “increase in Synaptophysin expression in injured hippocampus”. Further, the “association of MAP2 to the microtubules” value in test [3] is “stimulation”. Also, in test [4], the ventricular dilatation result is reported as “significantly decreases the ventricular dilatation”.
